Measured values from the supplement of paper PMC10307832.

The cell lines below were run with CCCS(=O)(=O)Nc1ccc(F)c(C(=O)c2c[nH]c3ncc(-c4ccc(Cl)cc4)cc23)c1F [Vemurafenib] + CC(C)C[C@H](NC(=O)[C@H](Cc1ccccc1)NC(=O)c1cnccn1)B(O)O [Bortezomib] (partner 0.002 µM) (assay: relative viability (nuclei count vs DMSO), 5 days (fraction); higher = more cells survive). Settings: first compound 0.03162 µM.
Procedure, shortened: (§1)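 Lung cancer cell lines in 1536-well plates got either a single drug or a fixed anchor-drug dose together with five library-drug doses (not always all listed) in √10 steps, by pin tool, on the day after seeding. Nuclei were counted after 5 days, and relative viability is the treated-to-vehicle ratio of nuclei counts. Values are medians of duplicate plates.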

Row | Cell Line | relative viability
1 | NCI-H2126 | 1.07
2 | EPLC-272H | 0.857
3 | NCI-H1755 | 0.877
4 | NCI-H2023 | 0.869
5 | NCI-H1650 | 0.223
6 | H3255 | 0.802
7 | NCI-H1975 | 0.361
8 | PC-14 | 0.728
9 | NCI-H1299 | 0.998
10 | NCI-H1437 | 0.439
11 | HOP-62 | 0.814
12 | HCC-44 | 0.861
13 | BEN | 0.768
14 | LOU-NH91 | 0.478
15 | NCI-H661 | 0.877
16 | NCI-H1651 | 0.851
17 | PC-3 [JPC-3] | 0.81

Row | Cell Line | relative viability
18 | SW 1573 | 0.896
19 | NCI-H2405 | 0.925
20 | NCI-H1703 | 0.527
21 | NCI-H1993 | 1.02
22 | ChaGo-K-1 | 0.934
23 | NCI-H1355 | 1.21
24 | HCC-366 | 1
25 | NCI-H2009 | 0.944
26 | Calu-6 | 0.897
27 | SK-LU-1 | 0.86
28 | COR-L23 | 0.925
29 | NCI-H1563 | 0.855
30 | COR-L 105 | 0.772
31 | NCI-H520 | 0.46
32 | EBC-1 | 0.453
33 | NCI-H2228 | 1.03
34 | IA-LM | 0.802

Same assay, conditions: first compound 0.1 µM

Row | Cell Line | relative viability
35 | NCI-H2126 | 1.07
36 | EPLC-272H | 0.749
37 | NCI-H1755 | 0.878
38 | NCI-H2023 | 0.948
39 | NCI-H1975 | 0.313
40 | NCI-H1299 | 0.976
41 | NCI-H1437 | 0.411
42 | HOP-62 | 0.868
43 | HCC-44 | 0.993
44 | BEN | 0.933
45 | LOU-NH91 | 0.467
46 | NCI-H661 | 0.663
47 | NCI-H1651 | 0.949
48 | SW 1573 | 0.945
49 | NCI-H2405 | 0.995
50 | NCI-H1703 | 0.438
51 | ChaGo-K-1 | 0.725
52 | NCI-H1355 | 1.19
53 | HCC-366 | 1.05
54 | NCI-H2009 | 0.922
55 | Calu-6 | 0.939
56 | SK-LU-1 | 1.05
57 | COR-L23 | 0.941
58 | NCI-H1563 | 0.658
59 | NCI-H520 | 0.487
60 | EBC-1 | 0.553
61 | NCI-H2228 | 1
62 | IA-LM | 0.764

Same assay, conditions: first compound 0.3162 µM

Row | Cell Line | relative viability
63 | NCI-H2126 | 1.09
64 | EPLC-272H | 0.812
65 | NCI-H1755 | 0.712
66 | NCI-H2023 | 0.859
67 | NCI-H1650 | 0.208
68 | H3255 | 0.612
69 | NCI-H1975 | 0.24
70 | PC-14 | 0.88
71 | NCI-H1299 | 0.918
72 | NCI-H1437 | 0.622
73 | HOP-62 | 0.648
74 | HCC-44 | 0.824
75 | BEN | 0.351
76 | NCI-H661 | 0.765
77 | NCI-H1651 | 0.769
78 | PC-3 [JPC-3] | 0.804
79 | SW 1573 | 1.03
80 | NCI-H1703 | 0.32
81 | NCI-H1993 | 1.25
82 | NCI-H1355 | 1.15
83 | NCI-H2009 | 0.583
84 | Calu-6 | 0.96
85 | COR-L23 | 0.832
86 | NCI-H1563 | 0.762
87 | COR-L 105 | 0.485
88 | NCI-H520 | 0.722
89 | EBC-1 | 0.622
90 | NCI-H2228 | 1.24
91 | IA-LM | 0.822

Same assay, conditions: first compound 1 µM

Row | Cell Line | relative viability
92 | NCI-H2126 | 1.14
93 | EPLC-272H | 0.867
94 | NCI-H1755 | 0.931
95 | NCI-H2023 | 0.943
96 | NCI-H1650 | 0.217
97 | H3255 | 0.681
98 | NCI-H1975 | 0.385
99 | PC-14 | 0.777
100 | NCI-H1299 | 1
101 | NCI-H1437 | 0.541
102 | HOP-62 | 1.07
103 | HCC-44 | 0.861
104 | BEN | 0.554
105 | LOU-NH91 | 0.534
106 | NCI-H661 | 0.778
107 | NCI-H1651 | 1
108 | PC-3 [JPC-3] | 0.887

Row | Cell Line | relative viability
109 | SW 1573 | 1.07
110 | NCI-H2405 | 0.829
111 | NCI-H1703 | 0.257
112 | NCI-H1993 | 1.03
113 | ChaGo-K-1 | 1.08
114 | NCI-H1355 | 1.23
115 | HCC-366 | 1.06
116 | NCI-H2009 | 0.778
117 | Calu-6 | 0.832
118 | SK-LU-1 | 1.14
119 | COR-L23 | 0.912
120 | NCI-H1563 | 0.846
121 | COR-L 105 | 0.759
122 | NCI-H520 | 0.454
123 | EBC-1 | 0.741
124 | NCI-H2228 | 1.15
125 | IA-LM | 0.598

These cell lines were tested with Cc1nc(NC(=O)N2CCC[C@H]2C(N)=O)sc1-c1ccnc(C(C)(C)C(F)(F)F)c1 [Alpelisib] + NC(=O)Nc1cc(-c2cccc(F)c2)sc1C(=O)N[C@H]1CCCNC1 [AZD7762] (partner 0.2 µM) in the same assay as above. Settings: first compound 0.04 µM.
Procedure, shortened: as §1

Row | Cell Line | relative viability
126 | NCI-H2126 | 0.998
127 | EPLC-272H | 0.237
128 | NCI-H1755 | 0.378
129 | NCI-H1793 | 0.473
130 | NCI-H2342 | 0.477
131 | H3255 | 0.86
132 | NCI-H1975 | 0.731
133 | PC-14 | 0.324
134 | NCI-H1437 | 1.12
135 | HOP-62 | 0.607
136 | HCC-44 | 1
137 | BEN | 0.67
138 | LOU-NH91 | 0.735
139 | NCI-H1651 | 0.458
140 | PC-3 [JPC-3] | 0.808
141 | LK-2 | 0.402
142 | NCI-H2405 | 0.763
143 | NCI-H1703 | 0.0965
144 | NCI-H1648 | 0.581
145 | NCI-H1993 | 0.722
146 | ChaGo-K-1 | 0.865
147 | NCI-H1355 | 0.792
148 | HCC-366 | 0.317
149 | NCI-H2170 | 0.865
150 | NCI-H522 | 0.791
151 | NCI-H1944 | 0.452
152 | NCI-H1395 | 0.438
153 | NCI-H358 | 0.506
154 | SW 900 | 0.629

Same assay, conditions: first compound 0.1265 µM

Row | Cell Line | relative viability
155 | NCI-H2126 | 1.01
156 | EPLC-272H | 0.251
157 | NCI-H1755 | 0.544
